Drawing on PubChem BioAssay AID1259407 (Chemical Carcinogenesis Research Information System (CCRIS), 2018), this text covers mutagenic call for 6 compounds.

This data set relates to CCRIS mutagenicity, Ames/micronucleus/aberration tests. Description: CCRIS mutagenicity studies.
Where [1] appears, read: Test System: AMES SALMONELLA TYPHIMURIUM, Strain/Indicator: TA98, Metabolic Activation: NONE, Method: STANDARD PLATE.
Where [2] appears, read: Test System: AMES SALMONELLA TYPHIMURIUM, Strain/Indicator: TA98, Metabolic Activation: RAT, LIVER, S-9, AROCLOR 1254, Method: STANDARD PLATE.
[3] abbreviates: Test System: AMES SALMONELLA TYPHIMURIUM, Strain/Indicator: TA100, Metabolic Activation: NONE, Method: STANDARD PLATE.
Setting [4] is: Test System: AMES SALMONELLA TYPHIMURIUM, Strain/Indicator: TA100, Metabolic Activation: RAT, LIVER, S-9, AROCLOR 1254, Method: STANDARD PLATE.
[5] abbreviates: Test System: AMES SALMONELLA TYPHIMURIUM, Strain/Indicator: TA1535, Metabolic Activation: NONE, Method: STANDARD PLATE.
Where [6] appears, read: Test System: AMES SALMONELLA TYPHIMURIUM, Strain/Indicator: TA1535, Metabolic Activation: RAT, LIVER, S-9, AROCLOR 1254, Method: STANDARD PLATE.
[7] abbreviates: Test System: AMES SALMONELLA TYPHIMURIUM, Strain/Indicator: TA1538, Metabolic Activation: NONE, Method: STANDARD PLATE.
Setting [8] is: Test System: AMES SALMONELLA TYPHIMURIUM, Strain/Indicator: TA1538, Metabolic Activation: RAT, LIVER, S-9, AROCLOR 1254, Method: STANDARD PLATE.

The source made the active and inactive calls. How the calls were made is not given here.

With `CCN(Cc1ccccc1)c1ccccc1`, the mutagenic call is, setting by setting: (Test System: AMES SALMONELLA TYPHIMURIUM, Strain/Indicator: TA97, Metabolic Activation: HAMSTER, LIVER, S-9, AROCLOR 1254 (10 OR 30%), Method: PREINCUBATION) “inactive; negative”; (Test System: AMES SALMONELLA TYPHIMURIUM, Strain/Indicator: TA97, Metabolic Activation: NONE, Method: PREINCUBATION) “inactive; negative”; (Test System: AMES SALMONELLA TYPHIMURIUM, Strain/Indicator: TA97, Metabolic Activation: RAT, LIVER, S-9, AROCLOR 1254 (10 OR 30%), Method: PREINCUBATION) “inactive; negative”; (Test System: AMES SALMONELLA TYPHIMURIUM, Strain/Indicator: TA98, Metabolic Activation: HAMSTER, LIVER, S-9, AROCLOR 1254 (10 OR 30%), Method: PREINCUBATION) “inactive; negative”; (Test System: AMES SALMONELLA TYPHIMURIUM, Strain/Indicator: TA98, Metabolic Activation: NONE, Method: PREINCUBATION) “inactive; negative”; (Test System: AMES SALMONELLA TYPHIMURIUM, Strain/Indicator: TA98, Metabolic Activation: RAT LIVER S-9, PHENOBARBITAL AND BETA-NAPHTHOFLAVONE, Method: PREINCUBATION) “inactive; negative”. The mutagenic call was “inactive; negative” (Test System: AMES SALMONELLA TYPHIMURIUM, Strain/Indicator: TA98, Metabolic Activation: RAT, LIVER, S-9, AROCLOR 1254 (10 OR 30%), Method: PREINCUBATION); “inactive; negative” (Test System: AMES SALMONELLA TYPHIMURIUM, Strain/Indicator: TA100, Metabolic Activation: HAMSTER, LIVER, S-9, AROCLOR 1254 (10 OR 30%), Method: PREINCUBATION); “inactive; negative” (Test System: AMES SALMONELLA TYPHIMURIUM, Strain/Indicator: TA100, Metabolic Activation: NONE, Method: PREINCUBATION); “inactive; negative” (Test System: AMES SALMONELLA TYPHIMURIUM, Strain/Indicator: TA100, Metabolic Activation: RAT LIVER S-9, PHENOBARBITAL AND BETA-NAPHTHOFLAVONE, Method: PREINCUBATION); “inactive; negative” (Test System: AMES SALMONELLA TYPHIMURIUM, Strain/Indicator: TA100, Metabolic Activation: RAT, LIVER, S-9, AROCLOR 1254 (10 OR 30%), Method: PREINCUBATION); “inactive; negative” (Test System: AMES SALMONELLA TYPHIMURIUM, Strain/Indicator: TA1535, Metabolic Activation: HAMSTER, LIVER, S-9, AROCLOR 1254 (10 OR 30%), Method: PREINCUBATION). For the same compound, the mutagenic call is “inactive; negative” (Test System: AMES SALMONELLA TYPHIMURIUM, Strain/Indicator: TA1535, Metabolic Activation: NONE, Method: PREINCUBATION); “inactive; negative” (Test System: AMES SALMONELLA TYPHIMURIUM, Strain/Indicator: TA1535, Metabolic Activation: RAT LIVER S-9, PHENOBARBITAL AND BETA-NAPHTHOFLAVONE, Method: PREINCUBATION); “inactive; negative” (Test System: AMES SALMONELLA TYPHIMURIUM, Strain/Indicator: TA1535, Metabolic Activation: RAT, LIVER, S-9, AROCLOR 1254 (10 OR 30%), Method: PREINCUBATION); “inactive; negative” (Test System: AMES SALMONELLA TYPHIMURIUM, Strain/Indicator: TA1537, Metabolic Activation: NONE, Method: PREINCUBATION); “inactive; negative” (Test System: AMES SALMONELLA TYPHIMURIUM, Strain/Indicator: TA1537, Metabolic Activation: RAT LIVER S-9, PHENOBARBITAL AND BETA-NAPHTHOFLAVONE, Method: PREINCUBATION); “inactive; negative” (Test System: AMES SALMONELLA TYPHIMURIUM, Strain/Indicator: TA1538, Metabolic Activation: NONE, Method: PREINCUBATION). Further, the mutagenic call runs as follows: (Test System: AMES SALMONELLA TYPHIMURIUM, Strain/Indicator: TA1538, Metabolic Activation: RAT LIVER S-9, PHENOBARBITAL AND BETA-NAPHTHOFLAVONE, Method: PREINCUBATION) “inactive; negative”; (Test System: E.COLI, Strain/Indicator: WP2UVRA, Metabolic Activation: NONE, Method: PREINCUBATION) “inactive; negative”; (Test System: E.COLI, Strain/Indicator: WP2UVRA, Metabolic Activation: RAT LIVER S-9, PHENOBARBITAL AND BETA-NAPHTHOFLAVONE, Method: PREINCUBATION) “inactive; negative”.
For the compound `CCOC(=O)[C@@H](N)CS`, where the note is “Test System: AMES SALMONELLA TYPHIMURIUM, Strain/Indicator: TA102, Metabolic Activation: NONE, Method: STANDARD PLATE”, the mutagenic call is “active; positive”.
Consider `CC(C)C[C@H](NC(=O)COc1cc(Cl)c(Cl)cc1Cl)C(=O)O`, for which the mutagenic call is, setting by setting: (Test System: AMES SALMONELLA TYPHIMURIUM, Strain/Indicator: TA97, Metabolic Activation: NONE, Method: STANDARD PLATE) “inactive; negative”; (Test System: AMES SALMONELLA TYPHIMURIUM, Strain/Indicator: TA97, Metabolic Activation: RAT, LIVER, S-9, AROCLOR 1254, Method: STANDARD PLATE) “inactive; negative”; under setting [1], “inactive; negative”; under setting [2], “inactive; negative”; under setting [3], “inactive; negative”; under setting [4], “inactive; negative”. The mutagenic call under setting [5] was “inactive; negative”, the mutagenic call under setting [6] was “inactive; negative”, the mutagenic call under setting [7] is “inactive; negative” and the mutagenic call under setting [8] was “inactive; negative”.
`O=S(=O)(O)c1c(N=Nc2c(O)ccc3ccccc23)ccc2ccccc12`: the mutagenic call runs as follows: (Test System: AMES SALMONELLA TYPHIMURIUM, Strain/Indicator: TA98, Metabolic Activation: HAMSTER, LIVER, S-9, AROCLOR 1254, Method: STANDARD PLATE) “active; positive”; (Test System: AMES SALMONELLA TYPHIMURIUM, Strain/Indicator: TA98, Metabolic Activation: HAMSTER, LIVER, S-9, Method: PREINCUBATION (PRIVAL METHOD)) “inactive; negative”; under setting [1], “active; positive”; under setting [2], “inactive; negative”; (Test System: AMES SALMONELLA TYPHIMURIUM, Strain/Indicator: TA100, Metabolic Activation: HAMSTER, LIVER, S-9, AROCLOR 1254, Method: STANDARD PLATE) “active; positive”; under setting [3], “inactive; negative”. The mutagenic call under setting [4] is “inactive; negative”; the mutagenic call (Test System: AMES SALMONELLA TYPHIMURIUM, Strain/Indicator: TA1535, Metabolic Activation: HAMSTER, LIVER, S-9, AROCLOR 1254, Method: STANDARD PLATE) was “active; positive”; the mutagenic call under setting [5] is “inactive; negative”; the mutagenic call under setting [6] is “inactive; negative”; the mutagenic call (Test System: AMES SALMONELLA TYPHIMURIUM, Strain/Indicator: TA1537, Metabolic Activation: NONE, Method: STANDARD PLATE) was “inactive; negative”; the mutagenic call (Test System: AMES SALMONELLA TYPHIMURIUM, Strain/Indicator: TA1538, Metabolic Activation: HAMSTER, LIVER, S-9, AROCLOR 1254, Method: STANDARD PLATE) was “active; positive”. The mutagenic call by setting is: under setting [7], “inactive; negative”; under setting [8], “inactive; negative”; (Test System: MOUSE LYMPHOMA, Strain/Indicator: L5178Y (TK+/TK-), Metabolic Activation: NONE, Method: SUSPENSION/PLATE) “inactive; negative. reevaluation of results: inconclusive”; (Test System: MOUSE LYMPHOMA, Strain/Indicator: L5178Y (TK+/TK-), Metabolic Activation: RAT, LIVER, S-9, AROCLOR 1254, Method: SUSPENSION/PLATE) “inactive; negative. reevauluation of results: negative”.
In the case of `O=[N+]([O-])c1cccc(CO/N=C/c2nc3cc([N+](=O)[O-])ccc3n2Cc2ccc(F)cc2)c1`, the mutagenic call runs as follows: under setting [1], “inactive; negative”; (Test System: AMES SALMONELLA TYPHIMURIUM, Strain/Indicator: TA98, Metabolic Activation: RAT, LIVER, S-9, PHENOBARBITAL AND BETA-NAPHTHOFLAVONE, Method: STANDARD PLATE) “inactive; negative”; under setting [3], “inactive; negative”; (Test System: AMES SALMONELLA TYPHIMURIUM, Strain/Indicator: TA100, Metabolic Activation: RAT, LIVER, S-9, PHENOBARBITAL AND BETA-NAPHTHOFLAVONE, Method: STANDARD PLATE) “inactive; negative”.
Turning to `ClCOCCl`, where the note is “Test System: AMES SALMONELLA TYPHIMURIUM, Strain/Indicator: G46, Metabolic Activation: NONE, Method: STANDARD PLATE”, the mutagenic call was “active; positive”.
